These results are taken from US20220331458A1, “AGENTS FOR CLEAVING LABELS FROM BIOMOLECULES IN VIVO” (TAGWORKS PHARMACEUTICALS B.V., priority 2019, published 2022).

Marks after values point to notes of the source that are not given here.

For the test, the system named is radiolabeled mAb-conjugates. Briefly: In vitro Label release from radiolabeled mAb-TCO-chelate conjugates incubated with Cleaving Agents (SEC). The conditions noted are these: 37°C, 15-24 h; for release (%) without Cleaving Agent: no Cleaving Agent. On the procedure:
Briefly, mAb solutions in PBS (4 mg/mL final concentration) were added with 15-20 eq of the NHS-derivative (dissolved at 10 mg/mL in DMSO) and the pH was adjusted to 9 with 1M sodium carbonate. The reaction mixtures were incubated at rt in the dark for 2 h then the products were purified by dialysis (20 kDa MW cut-off membranes) in chelex-treated 0.25M NH4OAc pH 5.5.
After 15-24 h incubation the mixtures were analyzed by SEC and the amount of released Label was quantified from the radioactivity elution profile.

Setting [1] is: TCO derivative conjugated to trastuzumab, ^111In, 50% mouse plasma in PBS.
The mark [2] stands for this setting: TCO derivative conjugated to trastuzumab, ^111In, PBS.
Where [3] appears, read: Label release from TCO derivative 1.14 on CC49, ^89Zr, PBS.
Setting [4] is: Label release from TCO derivative 1.15 on CC49, ^89Zr, PBS.
The mark [5] stands for this setting: Label release from TCO derivative 1.17 on CC49, ^89Zr, PBS.
Setting [6] is: Label release from TCO derivative 1.17 on trastuzumab, ^89Zr, PBS.
Setting [7] is: Label release from TCO derivative 1.4 on trastuzumab, ^111In, 50% mouse plasma in PBS.
[8] abbreviates: Label release from TCO derivative 1.8 on trastuzumab, ^111In, PBS.
The mark [9] stands for this setting: Label release from TCO derivative 1.8 on trastuzumab, ^111In, 50% mouse plasma in PBS.

Regarding `CN(CC(=O)NCCOCCOCCOCCOCCNC(=O)CCC(C(=O)O)N1CCN(CC(=O)O)CCN(CC(=O)O)CCN(CC(=O)O)CC1)C(=O)O[C@@H]1/C=C/CC[C@](C)(C(=O)NCCOCCOCCOCCOCCOCCOCCOCCOCCOCCNC(=O)CCN2C(=O)C=CC2=O)CC1` (stereo partly shown) [Compound 1.8, Mal-PEG9-TCO-Sar-PEG4-DOTAGA], the “release (%) without Cleaving Agent” value runs as follows: under setting [1], 6.6%; under setting [2], 5.8%.
For the compound `Cc1nnc(C)nn1` [Compound 2.13, reference compound], the “release (%)” value under setting [3] came out at 53.6%; the “release (%)” value under setting [4] was 66.3%; the “release (%)” value under setting [5] came out at 72.3%; the “release (%)” value under setting [6] amounted to 84.4%; the “release (%)” value under setting [7] is given as 62.9^a %; the “release (%)” value (Label release from TCO derivative 1.4 on trastuzumab, ^177Lu, PBS) stood at 69.5%. Further, the “release (%)” value amounted to 71.4% under setting [8] and 88.9% (Label release from TCO derivative 1.8 on trastuzumab, ^177Lu, PBS).
On to `Oc1cccnc1-c1nnc(-c2ncccc2O)nn1` [Compound 2.1, 2,2′-(1,2,4,5-Tetrazine-3,6-diyl)bis(pyridin-3-ol)], for which the “release (%)” value worked out at 53.0% under setting [3]; 62.3% under setting [4]; 81.3% (Label release from TCO derivative 1.17 on CC49, ^89Zr, 50% mouse plasma in PBS); 88.0% under setting [5]; 88.9% under setting [6]; 80.3% (Label release from TCO derivative 1.2 on CC49, ^111In, PBS). Moreover, the “release (%)” value is on record as 85.7% (Label release from TCO derivative 1.2 on cetuximab, ^111In, PBS); 83.2% (Label release from TCO derivative 1.2 on girentuximab, ^111In, PBS); 77.9% (Label release from TCO derivative 1.2 on rituximab, ^111In, PBS); 88.1% (Label release from TCO derivative 1.2 on trastuzumab, ^111In, 50% mouse plasma in PBS); 78.2% (Label release from TCO derivative 1.2 on trastuzumab, ^111In, PBS); 81.8^a % under setting [7]. Further, the “release (%)” value is recorded as 68.9% (Label release from TCO derivative 1.6 on trastuzumab, ^111In, 50% mouse plasma in PBS); 83.6% (Label release from TCO derivative 1.6 on trastuzumab, ^111In, PBS); 63.4% (Label release from TCO derivative 1.7 on trastuzumab, ^111In, 50% mouse plasma in PBS); 78.9% (Label release from TCO derivative 1.7 on trastuzumab, ^111In, PBS); 77.0% under setting [9]; 86.4% under setting [8].
`CC(=O)Nc1cccnc1-c1nnc(-c2ncccc2NC(C)=O)nn1` [Compound 2.4, N,N′-(2,2′-(1,2,4,5-Tetrazine-3,6-diyl)bis(pyridine-3,2-diyl))diacetamide]: the “release (%)” value under setting [9] is 54.5^a %.
As for `C[C@]1(C(=O)ON2C(=O)CCC2=O)CC/C=C/[C@@H](OC(=O)NCCNC(=O)CCC(C(=O)O)N2CCN(CC(=O)O)CCN(CC(=O)O)CCN(CC(=O)O)CC2)CC1` (stereo partly shown) [Compound 1.4, NHS-TCO-C2-DOTAGA], the “release (%) without Cleaving Agent” value under setting [1] was 7.1% and the “release (%) without Cleaving Agent” value under setting [2] was determined as 6.8%.
Turning to `O=C(CCCC(=O)Nc1cccnc1-c1nnc(-c2ncccc2NC(=O)CCCC(=O)NCCOCCOCCOCCOCCOCCOCCOCCOCCOCCO)nn1)NCCOCCOCCOCCOCCOCCOCCOCCOCCOCCO` [Compound 2.8, N^1,N^1′-(2,2′-(1,2,4,5-Tetrazine-3,6-diyl)bis(pyridine-3,2-diyl))bis(N^5-(29-hydroxy-3,6,9,12,15,18,21,24,27-nonaoxanonacosyl)glutaramide)], the “release (%)” value under setting [9] came out at 60.6% and the “release (%)” value under setting [8] came to 79.9%.
On to `Oc1cnccc1-c1nnc(-c2ccncc2O)nn1` [Compound 2.2, 4,4′-(1,2,4,5-Tetrazine-3,6-diyl)bis(pyridin-3-ol)], for which the “release (%)” value came to 60.3% under setting [3]; 65.8% under setting [4]; 87.2% under setting [5]; 61.4% under setting [6]; 69.5% (Label release from TCO derivative 1.4 on trastuzumab, ^111In, PBS); 81.6% under setting [8].
For `Cc1nnc(-c2nccc(CNC(=O)CCCC(=O)NC(CO)CO)n2)nn1` [Compound 2.20], the “release (%)” value under setting [8] is listed as 67.2%.
Take `CC(=O)N[C@H]1C(OCCOCCOCCn2cc(COCCC(=O)NCCCCC(NC(=O)CCOCc3cn(CCOCCOCCOC4O[C@H](CO)[C@H](O)[C@H](O)[C@H]4NC(C)=O)nn3)C(=O)NCc3ccc(-c4nncnn4)cc3)nn2)O[C@H](CO)[C@H](O)[C@@H]1O` (stereo partly shown) [Compound 2.11, Tetrazine-bis-GalNAc]: the “release (%)” value under setting [8] was 67.2%.
`NCc1ccc(-c2nncnn2)cc1` [Compound 2.16, reference compound]: the “release (%)” value under setting [8] was 64.5%.
With `O=C(O)CCCC(=O)Nc1cnccc1-c1nnc(-c2ccncc2NC(=O)CCCC(=O)O)nn1` [Compound 2.9, 5,5′-((4,4′-(1,2,4,5-Tetrazine-3,6-diyl)bis(pyridine-4,3-diyl))bis(azanediyl))bis(5-oxopentanoic acid)], the “release (%)” value under setting [9] is 67.0^a %.
Regarding `CC(=O)N(O)CCCCCNC(=O)CCC(=O)N(O)CCCCCNC(=O)CCC(=O)N(O)CCCCCNC(=O)CN(C)C(=O)O[C@@H]1/C=C/CC[C@](C)(C(=O)ON2C(=O)CCC2=O)CC1` [Compound 1.15, NHS-TCO-Sar-DFO], the “release (%) without Cleaving Agent” value (TCO derivative conjugated to CC49, ^89Zr, PBS) stood at 7.3%.
With `c1ccc(-c2nnc(-c3ccccn3)nn2)nc1` [Compound 2.14, reference compound], the “release (%)” value under setting [8] was 51.5%.
Same read-out and setting: the figure for `Cc1nnc(-c2ncccn2)nn1` [Compound 2.19, reference compound] is 69.1%.
